{"source": "ChEMBL document CHEMBL4699553", "about": "“Synthesis and biological evaluation of chalcone derivatives as neuroprotective agents against glutamate-induced HT22 mouse hippocampal neuronal cell death” (Bioorg Med Chem Lett, 2020)", "key": {"HT-22 [1]": {"tested_on": "HT-22", "experiment": "Neuroprotective activity against glutamate-induced cell death in mouse HT22 cells assessed as increase in cell viability at 0.15 to 38.46 uM incubated for 12 hrs by calcein-AM dye and propidium iodide staining based analysis", "assay_type": "functional", "conditions": "dose microM 0.15-38.46, time 12.0 hrs"}, "HT-22 [2]": {"tested_on": "HT-22", "experiment": "Induction of apoptosis in mouse HT22 cells assessed as early apoptotic cells at 12.8 uM by Annexin-V FITC and propidium iodide staining based flow cytometric analysis (reference value: 3.37 %)", "assay_type": "cell-based", "conditions": "ht-22, 12.8 µM"}, "[3]": {"experiment": "Induction of apoptosis in mouse HT22 cells assessed as viable cells at 12.8 uM by Annexin-V FITC and propidium iodide staining based flow cytometric analysis (reference value: 87.05 %)", "assay_type": "cell-based, HT-22", "conditions": "read-out: Activity"}, "HT-22 [4]": {"tested_on": "HT-22", "experiment": "Neuroprotection against glutamate-induced apoptosis in mouse HT22 cells assessed as decrease in translocation of AIF to nucleus at 12.8 uM by Western blot analysis", "assay_type": "functional, cell-based"}, "HT-22 [5]": {"tested_on": "HT-22", "experiment": "Neuroprotective activity against glutamate-induced cell death in mouse HT22 cells assessed as late apoptotic cells at 12.8 uM by Annexin-V FITC and propidium iodide staining based flow cytometric analysis (reference value: 4.62 %)", "assay_type": "functional"}, "HT-22 [6]": {"tested_on": "HT-22", "experiment": "Neuroprotection against glutamate-induced apoptosis in mouse HT22 cells assessed as reduction in bax protein level at 1.4 to 12.8 uM by Western blot analysis", "assay_type": "functional, cell-based", "conditions": "dose microM 1.4-12.8"}, "[7]": {"target": "MAP kinase p38 (Mus musculus) (UniProt P47811+O08911+Q9WUI1+Q9Z1B7)", "experiment": "Inhibition of glutamate-induced p38 MAPK activation in mouse HT22 cells assessed as reduction in phosphorylated p38 MAPK protein level by Western blot analysis", "assay_type": "cell-based", "conditions": "HT-22, dose microM 1.4-12.8"}, "Caenorhabditis elegans": {"tested_on": "Caenorhabditis elegans", "experiment": "Neuroprotective activity against 6-OHDA induced neuronal dysfunction in Caenorhabditis elegans N2 assessed as increase in number of body bending at 100 uM incubated for 1 hr and measured for 20 sec", "assay_type": "functional, organism-based"}, "HT-22 [8]": {"tested_on": "HT-22", "experiment": "Neuroprotective activity against glutamate-induced oxidative stress in mouse HT22 cells assessed as reduction in intracellular ROS accumulation at 12.8 uM by DCF-DA staining based fluorescence assay", "assay_type": "functional, cell-based"}, "HT-22 [9]": {"tested_on": "HT-22", "experiment": "Inhibition of glutamate-induced ERK activation in mouse HT22 cells assessed as reduction in phosphorylated ERK protein level by Western blot analysis", "assay_type": "cell-based", "conditions": "dose microM 1.4-12.8"}, "HT-22 [10]": {"tested_on": "HT-22", "experiment": "Neuroprotection against glutamate-induced apoptosis in mouse HT22 cells assessed as increase in bcl2 protein level at 1.4 to 12.8 uM by Western blot analysis", "assay_type": "functional, cell-based", "conditions": "dose microM 1.4-12.8"}, "HT-22 [11]": {"tested_on": "HT-22", "experiment": "Neuroprotective activity against glutamate-induced cell death in mouse HT22 cells assessed as live cells at 12.8 uM by Annexin-V FITC and propidium iodide staining based flow cytometric analysis (reference value: 15.03 %)", "assay_type": "functional"}, "[12]": {"target": "T1, Nuclear factor erythroid 2-related factor 2 (Homo sapiens) (UniProt Q16236)", "T1 sequence (whole entry)": "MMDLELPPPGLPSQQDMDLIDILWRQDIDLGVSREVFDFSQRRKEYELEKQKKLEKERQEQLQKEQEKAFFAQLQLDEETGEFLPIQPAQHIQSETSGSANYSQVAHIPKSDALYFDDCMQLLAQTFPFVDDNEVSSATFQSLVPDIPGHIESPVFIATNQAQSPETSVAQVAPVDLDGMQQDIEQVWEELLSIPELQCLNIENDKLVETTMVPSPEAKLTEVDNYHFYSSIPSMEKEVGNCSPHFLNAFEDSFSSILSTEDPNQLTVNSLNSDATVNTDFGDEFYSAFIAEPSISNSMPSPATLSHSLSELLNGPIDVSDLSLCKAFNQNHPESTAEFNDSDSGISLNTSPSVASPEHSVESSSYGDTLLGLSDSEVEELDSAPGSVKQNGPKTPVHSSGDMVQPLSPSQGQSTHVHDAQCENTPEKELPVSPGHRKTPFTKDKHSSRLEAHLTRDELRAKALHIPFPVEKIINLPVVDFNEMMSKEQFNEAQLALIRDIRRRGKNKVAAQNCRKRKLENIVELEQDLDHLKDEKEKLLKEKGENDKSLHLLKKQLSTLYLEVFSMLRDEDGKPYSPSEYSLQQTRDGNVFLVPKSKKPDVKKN", "experiment": "Activation of Nrf2 in human HepG2 cells co-transfected with ARE luciferase gene assessed as increase in ARE-driven luciferase activity by luciferase reporter gene assay", "assay_type": "cell-based", "conditions": "filed as activator"}, "[13]": {"experiment": "Antioxidant activity assessed as DPPH radical scavenging activity", "assay_type": "functional"}, "HT-22 [14]": {"tested_on": "HT-22", "experiment": "Induction of apoptosis in mouse HT22 cells assessed as necrotic cells at 12.8 uM by Annexin-V FITC and propidium iodide staining based flow cytometric analysis (reference value: 2.53 %)", "assay_type": "cell-based", "conditions": "ht-22, 12.8 µM"}, "Hippocampus": {"tested_on": "Hippocampus", "experiment": "Inhibition of erastin induced ferroptotic-cell death in rat hippocampal culture by propidium iodide uptake based fluorescence analysis", "assay_type": "functional, tissue-based"}, "HT-22 [15]": {"tested_on": "HT-22", "experiment": "Induction of apoptosis in mouse HT22 cells assessed as late apoptotic cells at 12.8 uM by Annexin-V FITC and propidium iodide staining based flow cytometric analysis (reference value: 7.05 %)", "assay_type": "cell-based", "conditions": "ht-22, 12.8 µM"}, "HT-22 [16]": {"tested_on": "HT-22", "experiment": "Neuroprotection against glutamate-induced apoptosis in mouse HT22 cells assessed as decrease in translocation of AIF to nucleus at 12.8 uM by immunostaining analysis", "assay_type": "functional, cell-based"}, "HT-22 [17]": {"tested_on": "HT-22", "experiment": "Neuroprotective activity against glutamate-induced cell death in mouse HT22 cells assessed as early apoptotic cells at 12.8 uM by Annexin-V FITC and propidium iodide staining based flow cytometric analysis (reference value: 79.84 %)", "assay_type": "functional"}, "HT-22 [18]": {"tested_on": "HT-22", "experiment": "Neuroprotective activity against glutamate-induced cell death in mouse HT22 cells assessed as necrotic cells at 12.8 uM by Annexin-V FITC and propidium iodide staining based flow cytometric analysis (reference value: 0.51 %)", "assay_type": "functional"}, "HT-22 [19]": {"tested_on": "HT-22", "experiment": "Neuroprotection against glutamate-induced Ca2+ homeostasis disruption in mouse HT22 cells assessed as reduction in intracellular Ca2+ uptake at 1.4 to 12.8 uM by Fluo3-AM staining based fluorescent microscopic method", "assay_type": "functional, cell-based", "conditions": "dose microM 1.4-12.8"}, "HT-22 [20]": {"tested_on": "HT-22", "experiment": "Inhibition of glutamate-induced JNK activation in mouse HT22 cells assessed as reduction in phosphorylated JNK protein level by Western blot analysis", "assay_type": "cell-based", "conditions": "dose microM 1.4-12.8"}, "HT-22 [21]": {"tested_on": "HT-22", "experiment": "Neuroprotective activity against glutamate-induced cell death in mouse HT22 cells assessed as cell viability at 12.8 uM incubated for 12 hrs by calcein AM dye and propidium iodide staining based analysis (reference value: 50%)", "assay_type": "functional", "conditions": "read-out: Activity"}}, "note": "Active and inactive are the calls of the source. The calls are words filed in the database; no cut-off is given here.", "data": [{"smiles": "COc1ccc2c(c1)C(=O)/C(=C/c1ccc(N(C)C)cc1)CC2", "values": [{"measurement": "Activity", "setting": "HT-22 [1]", "result": "Active"}]}, {"smiles": "COc1ccc2c(c1)C(=O)/C(=C/c1cc(OC)c(OC)cc1Br)CC2", "values": [{"measurement": "Activity", "setting": "HT-22 [1]", "result": "Active"}]}, {"smiles": "COc1ccc2c(c1)C(=O)/C(=C/c1c[nH]c3ccccc13)CC2", "values": [{"measurement": "Activity", "setting": "HT-22 [2]", "result": 0.95, "unit": "%"}, {"measurement": "viability at 12.8 µM", "setting": "[3]", "result": 88.2, "unit": "%"}, {"measurement": "Activity", "setting": "HT-22 [4]", "result": "Active"}, {"measurement": "Activity", "setting": "HT-22 [5]", "result": 5.92, "unit": "%"}, {"measurement": "Activity", "setting": "HT-22 [6]", "result": "Active"}, {"measurement": "inhibition", "setting": "[7]", "result": "Dose-dependent effect"}, {"measurement": "Activity", "setting": "Caenorhabditis elegans", "result": "Active"}, {"measurement": "Activity", "setting": "HT-22 [8]", "result": "Active"}, {"measurement": "inhibition", "setting": "HT-22 [9]", "result": "Dose-dependent effect"}, {"measurement": "Activity", "setting": "HT-22 [10]", "result": "Active"}, {"measurement": "Activity", "setting": "HT-22 [11]", "result": 91.37, "unit": "%"}, {"measurement": "Activity", "setting": "[12]", "result": "Active"}, {"measurement": "Activity", "setting": "[13]", "result": "inactive"}, {"measurement": "Activity", "setting": "HT-22 [14]", "result": 2.08, "unit": "%"}, {"measurement": "inhibition", "setting": "Hippocampus", "result": "inactive"}, {"measurement": "Activity", "setting": "HT-22 [15]", "result": 8.72, "unit": "%"}, {"measurement": "Activity", "setting": "HT-22 [16]", "result": "Active"}, {"measurement": "Activity", "setting": "HT-22 [17]", "result": 1.03, "unit": "%"}, {"measurement": "Activity", "setting": "HT-22 [18]", "result": 1.68, "unit": "%"}, {"measurement": "Activity", "setting": "HT-22 [19]", "result": "Active"}, {"measurement": "inhibition", "setting": "HT-22 [20]", "result": "Dose-dependent effect"}, {"measurement": "viability at 12.8 µM", "setting": "HT-22 [21]", "result": "> 80", "unit": "%"}]}, {"smiles": "COc1cccc(/C=C2\\CCc3ccc(OC)cc3C2=O)c1", "values": [{"measurement": "Activity", "setting": "HT-22 [1]", "result": "Active"}]}, {"smiles": "COc1cc(OC)c(/C=C2\\CCc3ccc(OC)cc3C2=O)c(OC)c1", "values": [{"measurement": "Activity", "setting": "HT-22 [1]", "result": "Active"}]}, {"smiles": "COc1ccc2c(c1)C(=O)/C(=C/c1cc(OC)c(OC)c(OC)c1)CC2", "values": [{"measurement": "Activity", "setting": "HT-22 [1]", "result": "Active"}]}, {"smiles": "COc1ccc2c(c1)C(=O)/C(=C/c1ccc(OC)c(OC)c1)CC2", "values": [{"measurement": "Activity", "setting": "HT-22 [1]", "result": "Active"}]}, {"smiles": "COc1ccc2c(c1)C(=O)/C(=C/c1cccc(O)c1)CC2", "values": [{"measurement": "Activity", "setting": "HT-22 [1]", "result": "inactive"}]}, {"smiles": "COc1ccc2c(c1)C(=O)/C(=C/c1ccc(O)cc1)CC2", "values": [{"measurement": "Activity", "setting": "HT-22 [1]", "result": "inactive"}]}, {"smiles": "COc1ccc2c(c1)C(=O)/C(=C/c1cc(OC)c(Br)c(OC)c1)CC2", "values": [{"measurement": "Activity", "setting": "HT-22 [1]", "result": "Active"}]}]}
